*1 amine or outer side, *2 acyl side, *3 side chain or, on linkers, in order; H or OH if unused. Where a SMILES comes first, the peptide text is derived from it. Bridges are numbered along the chain shown (N, C = ends). Roman numbers before positions name the chains, in order. [ ]: non-standard residue; d: D form. Actinocin(9to1) = Cc1c2oc3c(C)ccc(C(=O)[*:1])c3nc-2c(C(=O)[*:2])c(N)c1=O; NMeV = CN[C@H](C(=O)O)C(C)C; Sar = CNCC(=O)O
Assays:
Type in all cases: cell-based, human
[1] = system: HSC-3 squamous cell carcinoma cells; test: Cytotoxicity (MTT, 48 h) against HSC-3 cells; conditions: for CC50: Homo sapiens, HSC-3, 48 h, MTT, mean ± S.D. of triplicate; for SI (HSC-3): average CC50 towards HGF, HPLF, HPC divided by CC50 against HSC-3
Text: (§1) The target cells used in our study were human oral squamous cell carcinoma cell lines Ca9-22 (purchased from RIKEN Cell Bank, Tukuba, RCB-1976), HSC-2 (RCB1945), HSC-3 (RCB1975), HSC-4 (RCB1902), and three human normal oral cells, gingival fibroblast (HGF), periodontal ligament fibroblast (HPLF), and pulp cells (HPC) [established from the first premolar extracted tooth in the lower jaw (because of dysfunctional position or orthodontic treatment) and periodontal tissues of a child, according to the guideline of the Institutional Board of Meikai University Ethics Committee (No. A0808)], after obtaining informed consent from the patients. These cells were incubated for 48 h with the indicated concentrations of test samples or reference compounds sodium dichloroacetate (purchased from Sigma-Aldrich Chemical Company, Saint Louis, MO, USA), 5-fluorouracil (5-FU) from Kyowa (Tokyo, Japan), and doxorubicin (DXR) (St. Louis, MO, USA) and vehicle (DMSO) (0.008, 0.016, 0.031, 0.063, 0.125, 0.25, 0.5, and 1%) in Dulbecco’s Modified Eagle Medium (DMEM) media, which was supplemented with 10% heat-inactivated fetal bovine serum. Cell viability was determined by the MTT method. Cytotoxicity caused by the vehicle (DMSO) was subtracted.
(§2) SI was calculated by dividing the average CC50 value (concentration of the compound to kill 50% of the cells) of the compound towards HGF, HPLF, and HPC cells by the CC50 value of the compound against a specific neoplastic cell line.

[2] = Cytotoxicity (MTT, 48 h) against HPC non-malignant cells; conditions: female, human, normal pulp cells (HPC), mean ± S.D. of triplicate
Text: as §1

[3] = Cytotoxicity (MTT, 48 h) against HGF non-malignant cells; conditions: human, normal gingival fibroblasts (HGF), mean ± S.D. of triplicate
Text: as §1

[4] = Average cytotoxicity over the three non-malignant cells; conditions: female, human, normal oral cells HGF, HPLF and HPC (average over the three)
Text: as §1

[5] = system: HSC-4 squamous cell carcinoma cells; test: Cytotoxicity (MTT, 48 h) against HSC-4 cells; conditions: for CC50: Homo sapiens, HSC-4, 48 h, MTT, mean ± S.D. of triplicate; for SI (HSC-4): average CC50 towards HGF, HPLF, HPC divided by CC50 against HSC-4
Text: as §1, §2

[6] = system: Ca9-22 squamous cell carcinoma cells; test: Cytotoxicity (MTT, 48 h) against Ca9-22 cells; conditions: for CC50: Homo sapiens, Ca9-22, 48 h, MTT, mean ± S.D. of triplicate; for SI (Ca9-22): average CC50 towards HGF, HPLF, HPC divided by CC50 against Ca9-22
Text: as §1, §2

[7] = system: Ca9-22, HSC-2, HSC-3, and HSC-4 cells; test: Average cytotoxicity, selectivity and PSE over the four carcinoma lines; conditions: for CC50: Homo sapiens, average over Ca9-22, HSC-2, HSC-3, HSC-4; for Average SI: average of SI over Ca9-22, HSC-2, HSC-3, HSC-4
Text: as §1, §2
PSE reflects both the potencies and differences in cytotoxicity to neoplasms and non-malignant cells. This value was the product of the reciprocal of the average CC50 value of the compounds towards Ca9-22, HSC-2, HSC-3, and HSC-4 cells and the average SI value × 100.

[8] = Cytotoxicity (MTT, 48 h) against HPLF non-malignant cells; conditions: human, normal periodontal ligament fibroblasts (HPLF), mean ± S.D. of triplicate
Text: as §1

[9] = system: HSC-2 squamous cell carcinoma cells; test: Cytotoxicity (MTT, 48 h) against HSC-2 cells; conditions: for CC50: Homo sapiens, HSC-2, 48 h, MTT, mean ± S.D. of triplicate; for SI (HSC-2): average CC50 towards HGF, HPLF, HPC divided by CC50 against HSC-2
Text: as §1, §2

[10] = system: Ca9-22 cells; test: Mitotic accumulation in Ca9-22 cells
Experimental: Another way in which cytotoxicity could occur is by initiating mitosis. In order to examine this possibility, different concentrations of the potent cytotoxin 1k that were 3, 10, and 30 times the CC50 value were incubated with Ca9-22 cells for 20 h. […] In order to explore the possibility that the dichloroacetyl group contributed to this effect, concentrations of 2a that were 3, 10, and 30 times the CC50 concentration were incubated with Ca9-22 cells for 20 h. […] The question arose as to the way in which this observation could be useful in anticancer drug design. Cells which are stimulated to divide are likely more sensitive to a subsequent attack of a cytotoxin when cells are in a resting stage, for example.

[11] = system: procaspase 3; test: Procaspase 3 cleavage in Ca9-22 cells (Western blot)
Experimental: (§3) The effect of 20 h incubation of different concentrations of 1k and 2a with Ca9-22 cells on the cleavage of PARP and procaspase 3 cleavage was undertaken using a reported procedure. In brief, the control and treated Ca9-22 cells at near confluent phase were collected and lysed, and protein samples of cell lysates (15 µg) were applied to SDS-polyacrylamide gel electrophoresis. After electrophoresis, the separated proteins were transferred onto a PVDF (polyvinylidene fluoride) filter. The blots were treated in skim milk and then probed for 120 min with a primary antibody cocktail (1:250) from an Apoptosis Western Blot Cocktail kit (purchased from Abcam, Cambridge, UK). The blots were washed and probed with horseradish peroxidase conjugated secondary antibody cocktail (1:100). Immunoreactivities were determined using Amer-sham ECL Select. Images were acquired using ChemiDoc MP System and Image Lab 4.1 software (Bio-Rad Laboratories, Hercules, CA, USA).

[12] = system: PARP; test: PARP cleavage in Ca9-22 cells (Western blot)
Experimental: as §3

[13] = system: Ca9-22 cells; test: Cell cycle assay in Ca9-22 cells; conditions: 20 h
Experimental: The evaluation of varying quantities of 1d,e,k on the cell cycle in Ca9-22 cells was undertaken by a literature method. In brief, Ca9-22 cells were treated for 20 h without (control) or with the indicated concentrations of the test samples. To neglect the cytotoxicity effect of DMSO, all samples contained 0.1% DMSO. Cells (approximately 10^6 cells) were harvested, fixed for 1 h on ice with 1% paraformaldehyde, washed twice by phosphate-buffered saline, treated for 30 min at 37 °C with 0.2 mg/mL RNase A (ribonuclease A), stained for 15 min at room temperature with 0.01% propidium iodide in the presence of 0.01% NP-40 (nonyl phenoxypolyethoxyethanol) to prevent cell aggregation, filtered through Falcon® cell strainers (pore size: 40 µm) (Corning, NY, USA), subjected to cell sorting (SH800 Series; SONY Imaging Products and Solutions Inc., Kanagawa, Japan), and then analyzed with Cell Sorter Software version 2.1.2. (SONY Imaging Products and Solutions Inc., Kanagawa, Japan).

SMILES	CC50 [1]	SI (HSC-3) [1]	CC50 at 48 h [2]	CC50 at 48 h [3]	CC50 at 48 h [4]	CC50 [5]	SI (HSC-4) [5]	CC50 [6]	SI (Ca9-22) [6]	CC50 [7]	Average SI [7]	CC50 at 48 h [8]	CC50 [9]	SI (HSC-2) [9]	further results
CC(=O)N1C/C(=C\c2ccccc2)C(=O)/C(=C/c2ccccc2)C1 [Compound 2b]	2.25 ± 0.08 µM	4.93	4.83 ± 0.12 µM	23 ± 1.7 µM	11.1 µM	1.57 ± 0.12 µM	7.07	0.64 ± 0.01 µM	17.3	1.42 µM	9.58	5.6 ± 1.13 µM	1.23 ± 0.07 µM	9.02	–
O=C1C(=Cc2ccccc2)CNCC1=Cc1ccccc1 [Compound 2a, 3,5-bis(benzylidene)-4-piperidone]	0.8 ± 0.07 µM	14.6	4.3 ± 0.72 µM	21.7 ± 6 µM	11.7 µM	0.79 ± 0.22 µM	14.8	0.19 ± 0.03 µM	–	0.54 µM	30.3	9.1 ± 2.87 µM	0.39 ± 0.01 µM	30.0	mitotic accumulation ([10]; 2 µM and 6 µM, 20 h): mitotic accumulation occurred; cleavage of procaspase to caspase 3 ([11]; 2 and 6 µM, 20 h): cleavage of procaspase to caspase 3 was observed; PARP cleavage ([12]; 2 and 6 µM, 20 h): PARP was cleaved
Cc1c2oc3c(C)ccc(C(=O)N[C@@H]4C(=O)N[C@H](C(C)C)C(=O)N5CCC[C@H]5C(=O)N(C)CC(=O)N(C)[C@@H](C(C)C)C(=O)O[C@@H]4C)c3nc-2c(C(=O)N[C@@H]2C(=O)N[C@H](C(C)C)C(=O)N3CCC[C@H]3C(=O)N(C)CC(=O)N(C)[C@@H](C(C)C)C(=O)O[C@@H]2C)c(N)c1=O [actinomycin D, reference compound] (I: T[dV]P[Sar][NMeV] / II: T[dV]P[Sar][NMeV]; ester I:1-I:C, II:1-II:C; linker I:N-II:N via Actinocin(9to1))	–	–	–	–	–	–	–	–	–	–	–	–	–	–	mitosis ([10]; 1 µM): Increased mitosis; procaspase 3 cleavage ([11]; 1 µM): Cleavage; PARP cleavage ([12]; 1 µM): Cleavage
COc1cccc2c1C(=O)c1c(O)c3c(c(O)c1C2=O)C[C@@](O)(C(=O)CO)C[C@@H]3O[C@H]1C[C@H](N)[C@H](O)[C@H](C)O1 [DXR, doxorubicin, reference compound]	0.26 ± 0.21 µM	>36.7	> 8.65 µM	> 10 µM	> 9.55 µM	0.12 µM	>79.6	0.43 ± 0.04 µM	>22.2	0.25 µM	>46.6	> 10 µM	0.2 ± 0.02 µM	>47.8	–
O=c1[nH]cc(F)c(=O)[nH]1 [Compound 5-FU, 5-fluorouracil, reference compound]	61.3 ± 9.8 µM	>16.3	> 987 µM	> 1000 µM	> 996 µM	7.58 ± 0.5 µM	–	24.5 ± 12.3 µM	>40.7	31 µM	>55.2	> 1000 µM	30.5 ± 7.1 µM	>32.7	–
O=C1/C(=C/c2ccc(Cl)cc2)CN(C(=O)C(Cl)Cl)C/C1=C\c1ccc(Cl)cc1 [Compound 1d]	0.19 ± 0.02 µM	7.58	0.9 ± 0.02 µM	2.13 ± 0.12 µM	1.44 µM	0.18 ± 0.04 µM	8.00	0.05 µM	28.8	0.13 µM	14.7	1.29 ± 0.14 µM	0.1 ± 0.01 µM	14.4	G2M cell population ([13]; 0.8 µM, p < 0.05): most prominent increase; effect on the cell cycle ([13]; 0.1, 0.2, and 0.4 µM): little effects
COc1ccc(/C=C2\CN(C(=O)C(Cl)Cl)C/C(=C\c3ccc(OC)c(OC)c3)C2=O)cc1OC [Compound 1g]	0.28 ± 0.03 µM	14.5	1.19 ± 0.09 µM	8.13 ± 2.47 µM	4.05 µM	0.2 ± 0.04 µM	20.3	0.11 ± 0.02 µM	36.8	0.19 µM	23.9	2.83 ± 1.53 µM	0.17 ± 0.02 µM	23.8	–
